In the data set the test system is tobacco budworm (Heliothis virescens [Fabricius]). Nature of the data set: surface-treated diet test, insecticidal activity against tobacco budworm. It counts as in vivo. The following applies: 0.25 millimoles of candidate insecticide on the surface of the diet, second instar larvae, five-day exposure; for Percent Mortality: compared to total number of insects infested; for Percent Growth Inhibition: inhibition of insect weight relative to untreated controls. Summed up:
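Second-instar larvae (~5 mg) were held five days at 25° C and 60% RH on artificial diet whose surface carried dried compound (0.25 millimolar standard rate; DMSO serial dilutions for rate series, six replicates each). Readouts: mortality and weight inhibition relative to DMSO-treated controls.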

This is an account of results in patent US8119563B2, “N-substituted azacycles” (FMC Corporation, priority 2003, dated 2012).

In the case of `CCOC(C)C(=O)[O-].OC1(C(c2ccc(OC(F)(F)F)cc2)c2ccc(OC(F)(F)F)cc2)CC[N+](O)(Cc2ccc(Oc3ccccn3)cc2)CC1` (centres unmarked) [Compound 503], the “Percent Mortality” value is listed as 100% and the “Percent Growth Inhibition” value was determined as 100%.

With `O=C(O)CC(O)(CC(=O)O)C(=O)[O-].OC1(C(c2ccc(OC(F)(F)F)cc2)c2ccc(OC(F)(F)F)cc2)CC[N+](O)(Cc2ccc(Oc3ccccn3)cc2)CC1` (centres unmarked) [Compound 504], the “Percent Mortality” value came out at 100% and the “Percent Growth Inhibition” value stood at 100%.

As for `CC1(C)[C@@H]2CCC1(CS(=O)(=O)[O-])C(=O)C2.OC1(C(c2ccc(OC(F)(F)F)cc2)c2ccc(OC(F)(F)F)cc2)CC[N+](O)(Cc2ccc(Oc3ccccn3)cc2)CC1` (centres unmarked) [Compound 505], the “Percent Mortality” value amounted to 100% and the “Percent Growth Inhibition” value was 100%.

In the case of `CCS(=O)(=O)[O-].OC1(C(c2ccc(OC(F)(F)F)cc2)c2ccc(OC(F)(F)F)cc2)CC[N+](O)(Cc2ccc(Oc3ccccn3)cc2)CC1` (centres unmarked) [Compound 506], the “Percent Mortality” value is 100% and the “Percent Growth Inhibition” value is 100%.

For the molecule `CC1(C)[C@@H]2CCC1(CS(=O)(=O)[O-])C(=O)C2.CCON=Cc1ccc(C[N+]2(O)CCC(O)(C(c3ccc(OC(F)(F)F)cc3)c3ccc(OC(F)(F)F)cc3)CC2)cc1` (centres unmarked) [Compound 507], the “Percent Mortality” value came out at 100% and the “Percent Growth Inhibition” value is given as 100%.

On to `O=S(=O)([O-])C(F)(F)C(F)(F)C(F)(F)C(F)(F)F.OC1(C(c2ccc(OC(F)(F)F)cc2)c2ccc(OC(F)(F)F)cc2)CC[N+](O)(Cc2ccc(Oc3ccccn3)cc2)CC1` (centres unmarked) [Compound 508], for which the “Percent Mortality” value is 100% and the “Percent Growth Inhibition” value was determined as 100%.

Regarding `CC(C)=CCCC(C)CC(=O)[O-].OC1(C(c2ccc(OC(F)(F)F)cc2)c2ccc(OC(F)(F)F)cc2)CC[N+](O)(Cc2ccc(Oc3ccccn3)cc2)CC1` (centres unmarked) [Compound 509], the “Percent Mortality” value is 100% and the “Percent Growth Inhibition” value is 100%.

Turning to `O=C([O-])CO.OC1(C(c2ccc(OC(F)(F)F)cc2)c2ccc(OC(F)(F)F)cc2)CC[N+](O)(Cc2ccc(Oc3ccccn3)cc2)CC1` (centres unmarked) [Compound 510], the “Percent Mortality” value is recorded as 100% and the “Percent Growth Inhibition” value was found to be 100%.

Take `O=C([O-])C12CC3CC(CC(C3)C1)C2.OC1(C(c2ccc(OC(F)(F)F)cc2)c2ccc(OC(F)(F)F)cc2)CC[N+](O)(Cc2ccc(Oc3ccccn3)cc2)CC1` (centres unmarked) [Compound 511]: the “Percent Mortality” value stood at 100% and the “Percent Growth Inhibition” value came to 100%.

For `O=C([O-])CCCC(=O)O.OC1(C(c2ccc(OC(F)(F)F)cc2)c2ccc(OC(F)(F)F)cc2)CC[N+](O)(Cc2ccc(Oc3ccccn3)cc2)CC1` (centres unmarked) [Compound 512], the “Percent Mortality” value amounted to 100% and the “Percent Growth Inhibition” value came out at 100%.

On to `CCCCCCCC/C=C/CCCCCCCC(=O)[O-].OC1(C(c2ccc(OC(F)(F)F)cc2)c2ccc(OC(F)(F)F)cc2)CC[N+](O)(Cc2ccc(Oc3ccccn3)cc2)CC1` (centres unmarked) [Compound 513], for which the “Percent Mortality” value is given as 100% and the “Percent Growth Inhibition” value came to 100%.

`O=C([O-])CCCCCC(=O)O.OC1(C(c2ccc(OC(F)(F)F)cc2)c2ccc(OC(F)(F)F)cc2)CC[N+](O)(Cc2ccc(Oc3ccccn3)cc2)CC1` (centres unmarked) [Compound 514]: the “Percent Mortality” value was found to be 100% and the “Percent Growth Inhibition” value came out at 100%.

Regarding `CCCCCCCCCCCCc1ccc(S(=O)(=O)[O-])cc1.OC1(C(c2ccc(OC(F)(F)F)cc2)c2ccc(OC(F)(F)F)cc2)CC[N+](O)(Cc2ccc(Oc3ccccn3)cc2)CC1` (centres unmarked) [Compound 515], the “Percent Mortality” value was 100% and the “Percent Growth Inhibition” value was determined as 100%.

In the case of `O=C([O-])CCCCC(=O)O.OC1(C(c2ccc(OC(F)(F)F)cc2)c2ccc(OC(F)(F)F)cc2)CC[N+](O)(Cc2ccc(Oc3ccccn3)cc2)CC1` (centres unmarked) [Compound 516], the “Percent Mortality” value is 100% and the “Percent Growth Inhibition” value was 100%.

Turning to `CCCCCCCC(=O)[O-].OC1(C(c2ccc(OC(F)(F)F)cc2)c2ccc(OC(F)(F)F)cc2)CC[N+](O)(Cc2ccc(Oc3ccccn3)cc2)CC1` (centres unmarked) [Compound 517], the “Percent Mortality” value is listed as 100% and the “Percent Growth Inhibition” value was 100%.

Regarding `CCS(=O)(=O)[O-].OC1(C(c2ccc(C(F)(F)F)cc2)c2ccc(C(F)(F)F)cc2)CC[N+](O)(Cc2ccc(Oc3ccc(Cl)nn3)cc2)CC1` (centres unmarked) [Compound 518], the “Percent Mortality” value is 100% and the “Percent Growth Inhibition” value is recorded as 100%.

Consider `O=S(=O)([O-])C(F)(F)C(F)(F)C(F)(F)C(F)(F)C(F)(F)C(F)(F)C(F)(F)C(F)(F)C(F)(F)F.OC1(C(c2ccc(C(F)(F)F)cc2)c2ccc(C(F)(F)F)cc2)CC[N+](O)(Cc2ccc(Oc3ccc(Cl)nn3)cc2)CC1` (centres unmarked) [Compound 520], for which the “Percent Mortality” value is on record as 100% and the “Percent Growth Inhibition” value is 100%.

With `CC(C)OC(=O)Nc1ccc(C[N+]2(Cc3ccc(NC(=O)OC(C)C)cc3)CCC(O)(C(O)(c3ccc(OC(F)(F)F)cc3)c3ccc(OC(F)(F)F)cc3)CC2)cc1.[Cl-]` [Compound 521], the “Percent Mortality” value is reported as 50% and the “Percent Growth Inhibition” value came to 100%.

As for `Cl.OC1(C(c2ccc(OC(F)(F)F)cc2)c2ccc(OC(F)(F)F)cc2)CCN(Cc2ccc(Oc3ccccn3)cc2)CC1` [Compound 522], the “Percent Mortality” value is listed as 100% and the “Percent Growth Inhibition” value was 100%.
